In PMC7010297, “How the initiating ribosome copes with ppGpp to translate mRNAs” (PLoS Biology, 2020):
Several values for one entry are separate records, joined by “and”; a condition that tells them apart may be missing. Equal values may be shown once.

Key:
[1] = molecular target: T1, 70S pre-IC (50S joining to 30S IC) (Escherichia coli, UniProt P0A705); assay: 70S pre-IC formation by light scattering, stopped-flow; type: biochemical; design: K1, best-fit value / k2, best-fit value: unit not given here; conditions: for A0, best-fit value / K1, best-fit value / k2, best-fit value: fit Y=A0+A1*exp(-K1*x)+k2*x; for kfast (s-1) Avg: light scattering
T1 construct: 6xHis (N); made in house
T1 sequence (P0A705 whole entry, looked up): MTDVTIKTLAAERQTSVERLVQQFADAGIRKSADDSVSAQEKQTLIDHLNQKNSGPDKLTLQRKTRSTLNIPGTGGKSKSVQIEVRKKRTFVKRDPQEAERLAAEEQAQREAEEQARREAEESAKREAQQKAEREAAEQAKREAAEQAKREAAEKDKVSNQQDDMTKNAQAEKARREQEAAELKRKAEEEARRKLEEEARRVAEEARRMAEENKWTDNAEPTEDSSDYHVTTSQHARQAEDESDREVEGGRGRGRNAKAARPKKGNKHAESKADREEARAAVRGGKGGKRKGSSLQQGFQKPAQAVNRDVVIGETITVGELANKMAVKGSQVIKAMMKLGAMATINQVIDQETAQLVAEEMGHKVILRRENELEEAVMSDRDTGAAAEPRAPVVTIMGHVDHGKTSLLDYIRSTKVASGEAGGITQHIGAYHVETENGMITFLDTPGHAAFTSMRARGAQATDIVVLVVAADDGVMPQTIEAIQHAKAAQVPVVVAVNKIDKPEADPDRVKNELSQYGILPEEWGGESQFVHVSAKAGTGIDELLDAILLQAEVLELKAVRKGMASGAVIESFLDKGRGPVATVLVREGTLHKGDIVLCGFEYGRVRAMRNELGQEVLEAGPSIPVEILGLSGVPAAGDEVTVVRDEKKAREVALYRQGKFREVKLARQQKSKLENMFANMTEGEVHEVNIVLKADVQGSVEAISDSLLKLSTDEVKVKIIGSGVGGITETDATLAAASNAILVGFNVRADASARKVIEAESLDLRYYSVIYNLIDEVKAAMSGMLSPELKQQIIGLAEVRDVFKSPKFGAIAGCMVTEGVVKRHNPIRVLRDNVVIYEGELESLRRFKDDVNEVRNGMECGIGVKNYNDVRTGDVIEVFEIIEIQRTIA
Method: (§1) Continuous lines indicate nonlinear regression fittings with a quadratic equation. Three measurements were performed; mean and standard deviation are plotted (S1 Data). (B) as (A) to measure the concentration dependence for each tested guanosine nucleotide at constant IF2 (1 μM). […] Continuous lines show best fits using exponential functions. (D) Formation of 70S IC as measured by Bpy-tRNAi accommodation in the P site of the ribosome; 0.1 μM 30S ICs were formed with Bpy-tRNAi and rapidly mixed with 0.3 μM 50S subunits on a stopped-flow apparatus as described in [14]. Colors are as in (C). Continuous lines show best fits using an exponential function for a single reaction step. Each stopped-flow trace results from the mean of 5 to 7 replicates.
(A) Scheme of 70S IC formation. […] Time traces were analyzed by nonlinear regression with exponential terms. […] Formation of 70S IC, as measured by Bpy-tRNAi accommodation in the absence (F) or presence of 200 μM ppGpp (G). Time traces were analyzed by nonlinear regression with one exponential term. […] Continuous lines show best fits using an exponential function for a single reaction step. All time traces are mean values of 5 to 10 replicates. Bar graphs show mean and standard errors (error bars) derived from the nonlinear regression fitting (D,E,H,I) (S1 Data).
To measure 70S pre-IC formation, a SX-20 stopped-flow instrument (Applied Photophysics, Leatherhead, UK) was set up for LS recording with an excitation wavelength of 430 nm. Scattered light was measured at an angle of 90° without a filter. Pseudo first-order conditions were approximated by using ≥3-fold excess of 50S subunits over 30S ICs; 0.2 μM 30S ICs were rapidly mixed in the instrument with 0.6 μM 50S at 25 °C. Bpy-tRNAi accommodation was measured essentially as described elsewhere. Briefly, 0.2 μM 30S ICs were formed using Bpy-tRNAi and rapidly mixed with 0.6 μM 50S at 25 °C. Fluorescence was excited at 470 nm and measured after a 495-nm longpass filter. Individual traces (6–11 traces) were averaged, and the resulting kinetic curve was approximated by single (F = A0 + A1*exp (-kapp1*t)) or double (F = A0 + A1*exp (-kapp1*t) + A2*exp (-kapp2*t)) exponential fit using Graphpad Prism 6.0 software (GraphPad, San Diego, California).

IF2 = molecular target: T2, IF2 (Escherichia coli, UniProt P0A705); assay: IF2-Bpy-tRNAi-GNP ternary complex formation by MST; type: binding; conditions: S2A Fig
T2 construct: 6xHis (N); made in house
T2 sequence (P0A705 whole entry): as the sequence (P0A705 whole entry, looked up) above
Method: Supplementary file pbio.3000593.s002.pdf: S2 Fig IF2-Bpy-tRNAi complex formation as a function of guanosine nucleotides. (A) IF2 concentration dependencies for Bpy-tRNAi binding in the presence of 0.5 mM of the indicated guanosine nucleotides to build IF2-tRNA-GNP ternary complexes (TCs). […] Three to five measurements were performed; mean and standard deviation are plotted (S1 Data). […] (PDF) Click here for additional data file.

[2] = molecular target: T3, 30S IC (30S-bound IF2, Bpy-tRNAi) (Escherichia coli, UniProt P0A705); assay: 30S IC formation measured by MST at increasing concentrations of IF2 with guanosine nucleotides; type: binding; conditions: Fig 2A
T3 construct: 6xHis (N); made in house
T3 sequence (P0A705 whole entry, looked up): as above
Description: To monitor the interaction of initiator tRNA and 30S ribosomal subunits, we used Microscale Thermophoresis (MST) with a fluorescently labelled initiator tRNA (Bpy-tRNAi) (Fig 1B). MST allows to measure fluorescence in a constrained space. Changes on the readout derive from molecular drifts resulting from small thermal equilibrium perturbations. Upon equilibrium perturbations, the patterns of Bpy-tRNAi migration away from the observation space are related to bound and unbound states (Fig 1B). […] On the contrary, a decrease in thermophoresis indicated the dissociation of Bpy-tRNAi. The relation between fluorescence measured at both equilibriums (Ff to Fi, after and prior to the perturbation, respectively) as a function of ligand concentration allowed to determine dissociation constants of the interaction (Fig 1C).
as §1

Structure (SMILES): Nc1nc2c(ncn2[C@@H]2O[C@H](COP(=O)(O)OP(=O)(O)O)[C@@H](OP(=O)(O)OP(=O)(O)O)[C@H]2O)c(=O)[nH]1 [ppGpp]
- efficiency (amplitude) of 70S pre-IC formation ([1]; 0.2 mM nucleotide, no GTP): reduced efficiencies
- rapid 70S pre-IC formation in the absence of GTP ([1]; 0.2 mM nucleotide, noncompetitive (S6 Fig)): negligible
- A0, best-fit value ([1]; mInfA): 1.01
- K1, best-fit value ([1]; mInfA): 1.203 and 1.20
- k2, best-fit value ([1]; mInfA): 0.0007 and 0.000671
- A0, best-fit value ([1]; mMF1): 1.01
- K1, best-fit value ([1]; mMF1): 2.759 and 2.76
- k2, best-fit value ([1]; mMF1): 0.0007 and 0.000692
- LS amplitude (a.u.) Avg ([1]; mRNA mInfA): 0.011 a.u.
- kfast (s-1) Avg ([1]; mRNA mInfA): 1.20 s⁻¹
- LS amplitude (a.u.) Avg ([1]; mRNA mMF1): 0.012 a.u.
- kfast (s-1) Avg ([1]; mRNA mMF1): 2.76 s⁻¹
- LS amplitude (a.u.) Avg ([1]; mRNA mTufA): 0.035 a.u.
- kfast (s-1) Avg ([1]; mRNA mTufA): 3.76 s⁻¹
- A0, best-fit value ([1]; mTufA): 1.03
- K1, best-fit value ([1]; mTufA): 3.763 and 3.76
- k2, best-fit value ([1]; mTufA): 0.0010 and 0.00104
- MST Average (IF2; IF2 0.08 µM): 943.56 a.u.
- MST Replicates (IF2; IF2 0.08 µM): 950.05 a.u. and 945.75 a.u. and 934.87 a.u.
- MST Average (IF2; IF2 0.16 µM): 943.40 a.u.
- MST Replicates (IF2; IF2 0.16 µM): 949.30 a.u. and 935.29 a.u. and 945.62 a.u.
- MST Average (IF2; IF2 0.31 µM): 945.38 a.u.
- MST Replicates (IF2; IF2 0.31 µM): 948.56 a.u. and 936.80 a.u. and 950.79 a.u.
- MST Average (IF2; IF2 0.63 µM): 945.13 a.u.
- MST Replicates (IF2; IF2 0.63 µM): 936.31 a.u. and 947.81 a.u. and 951.27 a.u.
- MST Average (IF2; IF2 1.25 µM): 946.96 a.u.
- MST Replicates (IF2; IF2 1.25 µM): 952.23 a.u. and 948.54 a.u. and 940.12 a.u.
- MST Average (IF2; IF2 2.50 µM): 951.73 a.u.
- MST Replicates (IF2; IF2 2.50 µM): 945.20 a.u. and 956.43 a.u. and 953.55 a.u.
- MST Average (IF2; IF2 5.00 µM): 958.05 a.u.
- MST Replicates (IF2; IF2 5.00 µM): 952.00 a.u. and 959.98 a.u. and 962.17 a.u.
- MST Average (IF2; IF2 10.00 µM): 963.39 a.u.
- MST Replicates (IF2; IF2 10.00 µM): 958.44 a.u. and 964.79 a.u. and 966.94 a.u.
- MST Average (IF2; IF2 20.00 µM): 974.27 a.u.
- MST Replicates (IF2; IF2 20.00 µM): 972.33 a.u. and 976.56 a.u. and 973.92 a.u.
- MST Average (IF2; IF2 40.00 µM): 980.83 a.u.
- MST Replicates (IF2; IF2 40.00 µM): 982.65 a.u. and 981.22 a.u. and 978.62 a.u.
- MST Replicates (a.u.) ([2]; IF2 0.16 µM, in the presence of the nucleotide): 941.10 a.u. and 944.88 a.u. and 948.29 a.u.
- MST Average ([2]; IF2 0.31 µM): 944.83 a.u.
- MST Replicates (a.u.) ([2]; IF2 0.31 µM): 937.79 a.u. and 942.65 a.u. and 947.01 a.u.
- MST Average ([2]; IF2 0.63 µM): 941.79 a.u.
- MST Replicates (a.u.) ([2]; IF2 0.63 µM): 935.48 a.u. and 940.20 a.u. and 943.38 a.u.
- MST Average ([2]; IF2 1.25 µM): 942.39 a.u.
- MST Replicates (a.u.) ([2]; IF2 1.25 µM): 936.09 a.u. and 941.10 a.u. and 943.68 a.u.
- MST Average ([2]; IF2 2.50 µM): 949.26 a.u.
- MST Replicates (a.u.) ([2]; IF2 2.50 µM): 943.13 a.u. and 948.21 a.u. and 950.30 a.u.
- MST Average ([2]; IF2 5.00 µM): 968.50 a.u.
- MST Replicates (a.u.) ([2]; IF2 5.00 µM): 965.17 a.u. and 967.18 a.u. and 969.82 a.u.
